Results reported in patent US4738929A, “Purified culture of streptomyces galanosa” (Warner-Lambert Company, priority 1986, dated 1988).
≈ marks a conversion by molar mass, not a printed value. Where a name gives a salt, the structure may show the parent alone.

What was measured:
Bacillus megaterium = assay: Microtiter dilution MIC, Bacillus megaterium; type: cell-based; conditions: Priestia megaterium; Mueller-Hinton broth, 37° C., 16-24 hours; read-out: Minimal Inhibitory Concentration
Description: (§1) The compounds of the present invention and their pharmaceutically acceptable salts are useful as antimicrobial agents. The antimicrobial activity of the representative examples of compounds in accordance with the present invention against five species of gram-negative bacteria, seven species of gram-positive bacteria, four species of yeast, and two species of fungi were determined using the microtiter dilution technique. This method is described by T. B. Conrath, "Handbook of Microtiter Procedures," Dynatech Corp., Cambridge, Mass., USA (1972); and T. L. Gavan et al, "Microdilution Test Procedures," in Manual of Clinical Microbiology, E. H. Lennette, Ed., American Soc. for Microbiol., Washington, D.C., U.S.A. (1980).
(§2) Each agent is suspended in a nonaqueous solvent for several minutes to sterilize the compound or, if the compound is completely soluble in water, the aqueous solution is sterilized by passage through a 0.2-0.45 micrometer membrane filter.
(§3) Each well of a sterile 96-well microdilution tray is filled under aseptic conditions with 0.1 ml of Mueller-Hinton broth (for antibacterial tests), or yeast extract-peptone-dextrose or buffered supplemented yeast nitrogen base (for tests with yeasts or fungi).
(§4) […] of the test compound solution is added to each of the eight wells in the first row of the tray. A microdilutor apparatus is used to simultaneously mix the contents of these wells and to transfer aliquots to each succeeding row of cells to obtain a range of serially diluted solutions. The last row of wells is untreated and serves as a control.
(§5) Each well containing broth and test compound is inoculated with about ten microliters of inoculum of the test microorganism. One well in the last row of wells (which is free of test compound) is not inoculated and is used as a sterility control The trays are sealed and incubated at 37° C. for 16-24 hours (for bacteria) or at 28° C. for 36-48 hours (yeasts or fungi). During incubation, the inoculated medium is shaken at 100-140 rpm to increase contact between the microorganism cells and test compounds.
(§6) After the incubation period, each plate is evaluated by determining the lowest concentration of test compound required to inhibit the growth of the microorganism and recorded as a minimal inhibitory concentration (MIC).

[1] = tested on: Escherichia coli (PD-04863); assay: Microtiter dilution MIC, Escherichia coli (PD-04863); type: cell-based; conditions: Mueller-Hinton broth, 37° C., 16-24 hours, read-out: Minimal Inhibitory Concentration
Description: as §1, §2, §3, §4, §5, §6

[2] = tested on: L1210 murine leukemia cell line; assay: Cytotoxic activity against L1210 murine leukemia in vitro; type: cell-based; conditions: Mus musculus, 50% inhibition of growth, duplicate tests
Description: The antineoplastic activities of representative compounds of the present invention against the L1210 murine leukemia cell line in vitro were determined using the methods detailed by R. I. Geran et al, "Protocols for Screening Chemical Agents and Natural Products Against Animal Tumors and Other Biological Systems," 3rd Edition, Cancer Chemotherapy Reports, Part 3, Vol. 3, pages 1-87 (1972) which is incorporated herein by reference.
The IC50 values are the concentration of compound required to produce 50% inhibition of growth of the cell line.

Salmonella typhimurium = assay: Microtiter dilution MIC, Salmonella typhimurium; type: cell-based; conditions: Salmonella enterica, Mueller-Hinton broth, 37° C., 16-24 hours, read-out: Minimal Inhibitory Concentration
Description: as §1, §2, §3, §4, §5, §6

Streptococcus pyogenes = assay: Microtiter dilution MIC, Streptococcus pyogenes; type: cell-based; conditions: Mueller-Hinton broth, 37° C., 16-24 hours, read-out: Minimal Inhibitory Concentration
Description: as §1, §2, §3, §4, §5, §6

Streptococcus faecalis = assay: Microtiter dilution MIC, Streptococcus faecalis; type: cell-based; conditions: Enterococcus faecalis; Mueller-Hinton broth, 37° C., 16-24 hours; read-out: Minimal Inhibitory Concentration
Description: as §1, §2, §3, §4, §5, §6

Bacillus cereus = assay: Microtiter dilution MIC, Bacillus cereus; type: cell-based; conditions: Mueller-Hinton broth, 37° C., 16-24 hours, read-out: Minimal Inhibitory Concentration
Description: as §1, §2, §3, §4, §5, §6

Branhamella catarrhalis = assay: Microtiter dilution MIC, Branhamella catarrhalis; type: cell-based; conditions: Moraxella catarrhalis; Mueller-Hinton broth, 37° C., 16-24 hours; read-out: Minimal Inhibitory Concentration
Description: as §1, §2, §3, §4, §5, §6

Alcaligenes viscolactis = assay: Microtiter dilution MIC, Alcaligenes viscolactis; type: cell-based; conditions: Mueller-Hinton broth, 37° C., 16-24 hours, read-out: Minimal Inhibitory Concentration
Description: as §1, §2, §3, §4, §5, §6

[3] = tested on: Schizosaccharomyces pombe; assay: Microtiter dilution MIC, Schizosaccharomyces pombe; type: cell-based; conditions: yeasts or fungi, 28° C., 36-48 hours, read-out: Minimal Inhibitory Concentration
Description: as §1, §2, §3, §4, §5, §6

Staphylococcus aureus = assay: Microtiter dilution MIC, Staphylococcus aureus; type: cell-based; conditions: Mueller-Hinton broth, 37° C., 16-24 hours, read-out: Minimal Inhibitory Concentration
Description: as §1, §2, §3, §4, §5, §6

Pseudomonas aeruginosa = assay: Microtiter dilution MIC, Pseudomonas aeruginosa; type: cell-based; conditions: Mueller-Hinton broth, 37° C., 16-24 hours, read-out: Minimal Inhibitory Concentration
Description: as §1, §2, §3, §4, §5, §6

Mucor paraciticus = assay: Microtiter dilution MIC, Mucor paraciticus; type: cell-based; conditions: yeasts or fungi, 28° C., 36-48 hours, read-out: Minimal Inhibitory Concentration
Description: as §1, §2, §3, §4, §5, §6

Saccharomyces cerevisiae = assay: Microtiter dilution MIC, Saccharomyces cerevisiae; type: cell-based; conditions: yeasts or fungi, 28° C., 36-48 hours, read-out: Minimal Inhibitory Concentration
Description: as §1, §2, §3, §4, §5, §6

Rhodotorula aurantiaca = assay: Microtiter dilution MIC, Rhodotorula aurantiaca; type: cell-based; conditions: Buckleyzyma aurantiaca; yeasts or fungi, 28° C., 36-48 hours; read-out: Minimal Inhibitory Concentration
Description: as §1, §2, §3, §4, §5, §6

Streptococcus pneumoniae = assay: Microtiter dilution MIC, Streptococcus pneumoniae; type: cell-based; conditions: Mueller-Hinton broth, 37° C., 16-24 hours, read-out: Minimal Inhibitory Concentration
Description: as §1, §2, §3, §4, §5, §6

P388 leukemia cell line = assay: In vivo antineoplastic activity against transplanted P388 leukemia in mice; conditions: Days 1-9
Description: The in vivo antineoplastic activity of representative compounds of the present invention against the transplanted P388 leukemia cell line in mice was determined in accordance with the protocol given in Geran et al, cited above. The mice were infected intraperitoneally on Day 0 and then administered the indicated doses of the test compounds on Days 1-9.

Torulopsis albida = assay: Microtiter dilution MIC, Torulopsis albida; type: cell-based; conditions: Naganishia albida; yeasts or fungi, 28° C., 36-48 hours; read-out: Minimal Inhibitory Concentration
Description: as §1, §2, §3, §4, §5, §6

Rhizopus japonicus = assay: Microtiter dilution MIC, Rhizopus japonicus; type: cell-based; conditions: yeasts or fungi, 28° C., 36-48 hours, read-out: Minimal Inhibitory Concentration
Description: as §1, §2, §3, §4, §5, §6

Micrococcus luteus = assay: Microtiter dilution MIC, Micrococcus luteus; type: cell-based; conditions: Mueller-Hinton broth, 37° C., 16-24 hours, read-out: Minimal Inhibitory Concentration
Description: as §1, §2, §3, §4, §5, §6

SMILES	MIC (Bacillus megaterium) [µg/mL]	MIC [1] [µg/mL]	IC50 [2] [µg/mL]	MIC (Salmonella typhimurium) [µg/mL]	MIC (Streptococcus pyogenes) [µg/mL]	MIC (Streptococcus faecalis) [µg/mL]	MIC (Bacillus cereus) [µg/mL]	MIC (Branhamella catarrhalis) [µg/mL]	MIC (Alcaligenes viscolactis) [µg/mL]	MIC [3] [µg/mL]	MIC (Staphylococcus aureus) [µg/mL]	MIC (Pseudomonas aeruginosa) [µg/mL]	MIC (Mucor paraciticus) [µg/mL]	MIC (Saccharomyces cerevisiae) [µg/mL]	MIC (Rhodotorula aurantiaca) [µg/mL]	MIC (Streptococcus pneumoniae) [µg/mL]	% T/C (P388 leukemia cell line; 25 mg/kg/injection)	MIC (Torulopsis albida) [µg/mL]	MIC (Rhizopus japonicus) [µg/mL]	MIC (Micrococcus luteus) [µg/mL]	further results
COC(=O)c1ccc(O)c2nc3c(C=O)c(O)c(C)c(O)c3nc12 [Example 3, 6-formyl-4,7,9-trihydroxy-8-methyl-1-phenazinecarboxylic acid, methyl ester]	1000 (≈ 3050 µM)	> 1000	0.17 (≈ 0.518 µM)	1000 (≈ 3050 µM)	111 (≈ 338 µM)	1000 (≈ 3050 µM)	333 (≈ 1010 µM)	111 (≈ 338 µM)	333 (≈ 1010 µM)	> 1000	> 1000	> 1000	1000 (≈ 3050 µM)	> 1000	> 1000	< 0.46	Toxic	1000 (≈ 3050 µM)	> 1000	111 (≈ 338 µM)	% T/C (P388 leukemia cell line; 3.12 mg/kg/injection): 119%; % T/C (P388 leukemia cell line; 6.25 mg/kg/injection): 130%; % T/C (P388 leukemia cell line; 12.5 mg/kg/injection): 149%
COC(=O)c1ccc(O)c2nc3c(C=NCCN(C)C)c(O)c(C)c(O)c3nc12 [Example 5, 6-[[[2-(dimethylamino)ethyl]imino]methyl]-4,7,9-trihydroxy-8-methyl-1-phenazinecarboxylic acid, methyl ester]	4.1 (≈ 10.3 µM)	12.3 (≈ 30.9 µM)	0.17 (≈ 0.427 µM)	12.3 (≈ 30.9 µM)	4.1 (≈ 10.3 µM)	12.3 (≈ 30.9 µM)	1.4 (≈ 3.51 µM)	1.4 (≈ 3.51 µM)	4.1 (≈ 10.3 µM)	37 (≈ 92.9 µM)	12.3 (≈ 30.9 µM)	111 (≈ 279 µM)	37 (≈ 92.9 µM)	111 (≈ 279 µM)	111 (≈ 279 µM)	< 0.46		333 (≈ 836 µM)	111 (≈ 279 µM)	4.1 (≈ 10.3 µM)	% T/C (P388 leukemia cell line; 37.5 mg/kg/injection): 104%; % T/C (P388 leukemia cell line; 75 mg/kg/injection): 113%; % T/C (P388 leukemia cell line; 150 mg/kg/injection): 137%
Cc1c(O)c(C=NCCN(C)C)c2nc3c(O)ccc(C(=O)NCCN(C)C)c3nc2c1O [Example 7, N-[2-(dimethylamino)ethyl]-6-[[[2-(dimethylamino)ethyl]imino]methyl]-4,7,9-trihydroxy-8-methyl-1-phenazinecarboxamide]	333 (≈ 733 µM)	111 (≈ 244 µM)	0.63 (≈ 1.39 µM)	333 (≈ 733 µM)	111 (≈ 244 µM)	1000 (≈ 2200 µM)	111 (≈ 244 µM)	12.3 (≈ 27.1 µM)	4.1 (≈ 9.02 µM)	111 (≈ 244 µM)	333 (≈ 733 µM)	< 1000	333 (≈ 733 µM)	1000 (≈ 2200 µM)	111 (≈ 244 µM)	37 (≈ 81.4 µM)	126%	1000 (≈ 2200 µM)	333 (≈ 733 µM)	37 (≈ 81.4 µM)	% T/C (P388 leukemia cell line; 50 mg/kg/injection): 140%; % T/C (P388 leukemia cell line; 100 mg/kg/injection): 152%; % T/C (P388 leukemia cell line; 200 mg/kg/injection): 166%
Cc1c(O)c(C=O)c2nc3c(O)ccc(C(=O)NCCN(C)C)c3nc2c1O [Example 9, N-[2-(dimethylamino)ethyl]-6-formyl-4,7,9-trihydroxy-8-methyl-1-phenazinecarboxamide, methanesulfonate salt]																					% T/C (P388 leukemia cell line; 5 mg/kg/injection): 139%; % T/C (P388 leukemia cell line; 10 mg/kg/injection): 143%; % T/C (P388 leukemia cell line; 20 mg/kg/injection): 144%; % T/C (P388 leukemia cell line; 40 mg/kg/injection): 170%; % T/C (P388 leukemia cell line; 80 mg/kg/injection): 219%
Cc1c(O)c(C=O)c2nc3c(O)ccc(C(=O)O)c3nc2c1O [Example 11, 6-formyl-4,7,9-trihydroxy-8-methyl-1-phenazinecarboxylic acid]	111 (≈ 353 µM)	111 (≈ 353 µM)	3.47 (≈ 11 µM)	111 (≈ 353 µM)	111 (≈ 353 µM)	111 (≈ 353 µM)	37 (≈ 118 µM)	12.3 (≈ 39.1 µM)	12.3 (≈ 39.1 µM)	37 (≈ 118 µM)	37 (≈ 118 µM)	1000 (≈ 3180 µM)	37 (≈ 118 µM)	111 (≈ 353 µM)	12.3 (≈ 39.1 µM)	111 (≈ 353 µM)		111 (≈ 353 µM)	37 (≈ 118 µM)	111 (≈ 353 µM)	
CN(C)CCNC(=O)c1ccc(O)c2nc3c(C=O)c(O)cc(O)c3nc12 [Example 14, N-[2-(dimethylamino)ethyl]-6-formyl-4,7,9-trihydroxy-1-phenazinecarboxamide]	111 (≈ 300 µM)	111 (≈ 300 µM)		111 (≈ 300 µM)	111 (≈ 300 µM)	111 (≈ 300 µM)	37 (≈ 99.9 µM)	12.3 (≈ 33.2 µM)	12.3 (≈ 33.2 µM)	111 (≈ 300 µM)	37 (≈ 99.9 µM)	1000 (≈ 2700 µM)	333 (≈ 899 µM)	> 1000	37 (≈ 99.9 µM)	111 (≈ 300 µM)		333 (≈ 899 µM)	333 (≈ 899 µM)	111 (≈ 300 µM)	
